{
  "source": "PubChem BioAssay AID2060613",
  "about": "(Molecular Pharmacology Branch, DTP, NCI, 2025)",
  "system": "233499-124-R-J3-PDC complex spheroid viability",
  "test": "Anticancer human tumor 233499-124-R-J3-PDC patient-derived colon adenocarcinoma cell line growth inhibition [CLK]",
  "conditions": "for viability, T/C: stronger effect = lower value",
  "procedure,_shortened": "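Patient-derived tumor cells grown as complex spheroids with HUVEC endothelial cells and mesenchymal stem cells, treated with drug combinations. Concentrations descend in half-log steps from near clinical Cmax, or from 10 microM if Cmax unknown.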",
  "note": "Several values for one entry are separate records, joined by “and”; a condition that tells them apart may be missing. Identical values can stand only once.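 Note: spheroids exposed to the drug combinations for seven days.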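 Throughout, for viability, T/C: percent viability relative to DMSO vehicle control wells taken as 100%.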",
  "data": [
    {"smiles": "Cn1ncnc1[C@H]1c2n[nH]c(=O)c3cc(F)cc(c23)N[C@@H]1c1ccc(F)cc1", "note": "+ CN1CCN(c2cc(C(=O)Nc3cc4cc(-c5cnn(C)c5)ccc4cn3)ccn2)CC1", "values": [
      {"measurement": "IC50", "setting": "curve of first compound, second compound 0.0316 µM", "result": "> 100", "unit": "nM"},
      {"measurement": "IC50", "setting": "curve of first compound, second compound 0.1 µM", "result": "> 100", "unit": "nM"},
      {"measurement": "IC50", "setting": "curve of first compound, second compound 0.316 µM", "result": "> 100", "unit": "nM"},
      {"measurement": "IC50", "setting": "curve of first compound, second compound 1 µM", "result": "< 0.316", "unit": "nM"},
      {"measurement": "IC50", "setting": "curve of first compound, second compound 3.16 µM", "result": "< 0.316", "unit": "nM"},
      {"measurement": "IC50", "setting": "curve of first compound, second compound 10 µM", "result": "< 0.316", "unit": "nM"},
      {"measurement": "viability, T/C", "setting": "second compound 0.0316 µM, first compound 0.000316 µM", "result": 91.2, "unit": "%"},
      {"measurement": "viability, T/C", "setting": "second compound 0.0316 µM, first compound 0.001 µM", "result": 108, "unit": "%"},
      {"measurement": "viability, T/C", "setting": "second compound 0.0316 µM, first compound 0.00316 µM", "result": 100, "unit": "%"},
      {"measurement": "viability, T/C", "setting": "second compound 0.0316 µM, first compound 0.01 µM", "result": 110, "unit": "%"},
      {"measurement": "viability, T/C", "setting": "second compound 0.0316 µM, first compound 0.0316 µM", "result": 104, "unit": "%"},
      {"measurement": "viability, T/C", "setting": "second compound 0.0316 µM, first compound 0.1 µM", "result": 92.7, "unit": "%"},
      {"measurement": "viability, T/C", "setting": "second compound 0.1 µM, first compound 0.000316 µM", "result": 100, "unit": "%"},
      {"measurement": "viability, T/C", "setting": "second compound 0.1 µM, first compound 0.001 µM", "result": 105, "unit": "%"},
      {"measurement": "viability, T/C", "setting": "second compound 0.1 µM, first compound 0.00316 µM", "result": 89.5, "unit": "%"},
      {"measurement": "viability, T/C", "setting": "second compound 0.1 µM, first compound 0.01 µM", "result": 97.8, "unit": "%"},
      {"measurement": "viability, T/C", "setting": "second compound 0.1 µM, first compound 0.0316 µM", "result": 92.1, "unit": "%"},
      {"measurement": "viability, T/C", "setting": "second compound 0.1 µM, first compound 0.1 µM", "result": 94.4, "unit": "%"},
      {"measurement": "viability, T/C", "setting": "second compound 0.316 µM, first compound 0.000316 µM", "result": 85.5, "unit": "%"},
      {"measurement": "viability, T/C", "setting": "second compound 0.316 µM, first compound 0.001 µM", "result": 103, "unit": "%"},
      {"measurement": "viability, T/C", "setting": "second compound 0.316 µM, first compound 0.00316 µM", "result": 101, "unit": "%"},
      {"measurement": "viability, T/C", "setting": "second compound 0.316 µM, first compound 0.01 µM", "result": 89.6, "unit": "%"},
      {"measurement": "viability, T/C", "setting": "second compound 0.316 µM, first compound 0.0316 µM", "result": 92.7, "unit": "%"},
      {"measurement": "viability, T/C", "setting": "second compound 0.316 µM, first compound 0.1 µM", "result": 101, "unit": "%"},
      {"measurement": "viability, T/C", "setting": "second compound 1 µM, first compound 0.000316 µM", "result": 19.1, "unit": "%"},
      {"measurement": "viability, T/C", "setting": "second compound 1 µM, first compound 0.001 µM", "result": 2.31, "unit": "%"},
      {"measurement": "viability, T/C", "setting": "second compound 1 µM, first compound 0.00316 µM", "result": 5.38, "unit": "%"},
      {"measurement": "viability, T/C", "setting": "second compound 1 µM, first compound 0.01 µM", "result": 1.23, "unit": "%"},
      {"measurement": "viability, T/C", "setting": "second compound 1 µM, first compound 0.0316 µM", "result": 2.59, "unit": "%"},
      {"measurement": "viability, T/C", "setting": "second compound 1 µM, first compound 0.1 µM", "result": 0.76, "unit": "%"},
      {"measurement": "viability, T/C", "setting": "second compound 3.16 µM, first compound 0.000316 µM", "result": 0.59, "unit": "%"},
      {"measurement": "viability, T/C", "setting": "second compound 3.16 µM, first compound 0.001 µM", "result": 0.64, "unit": "%"},
      {"measurement": "viability, T/C", "setting": "second compound 3.16 µM, first compound 0.00316 µM", "result": 0.58, "unit": "%"},
      {"measurement": "viability, T/C", "setting": "second compound 3.16 µM, first compound 0.01 µM", "result": 0.53, "unit": "%"},
      {"measurement": "viability, T/C", "setting": "second compound 3.16 µM, first compound 0.0316 µM", "result": 0.57, "unit": "%"},
      {"measurement": "viability, T/C", "setting": "second compound 3.16 µM, first compound 0.1 µM", "result": 0.46, "unit": "%"},
      {"measurement": "viability, T/C", "setting": "second compound 10 µM, first compound 0.000316 µM", "result": 0.41, "unit": "%"},
      {"measurement": "viability, T/C", "setting": "second compound 10 µM, first compound 0.001 µM", "result": 0.43, "unit": "%"},
      {"measurement": "viability, T/C", "setting": "second compound 10 µM, first compound 0.00316 µM", "result": 0.45, "unit": "%"},
      {"measurement": "viability, T/C", "setting": "second compound 10 µM, first compound 0.01 µM", "result": 0.44, "unit": "%"},
      {"measurement": "viability, T/C", "setting": "second compound 10 µM, first compound 0.0316 µM", "result": 0.51, "unit": "%"},
      {"measurement": "viability, T/C", "setting": "second compound 10 µM, first compound 0.1 µM", "result": 0.56, "unit": "%"}
    ]},
    {"smiles": "NC(=O)C(=Cn1cnc(-c2cc(C(F)(F)F)cc(C(F)(F)F)c2)n1)c1cncnc1", "values": [
      {"measurement": "viability, T/C", "setting": "compound 0.00949 µM", "result": "79.8% and 85.7%"},
      {"measurement": "viability, T/C", "setting": "compound 0.03 µM", "result": "92.3% and 86.1%"},
      {"measurement": "viability, T/C", "setting": "compound 0.0949 µM", "result": "94.4% and 92.1%"},
      {"measurement": "viability, T/C", "setting": "compound 0.3 µM", "result": "70.9% and 61.6%"},
      {"measurement": "viability, T/C", "setting": "compound 0.949 µM", "result": "57.1% and 48%"},
      {"measurement": "viability, T/C", "setting": "compound 3 µM", "result": "19.2% and 7.79%"},
      {"measurement": "IC50", "setting": "curve of compound", "result": "1120 nM and 750 nM"}
    ]}
  ]
}
